This passage reports Activity and IC50 results from ChEMBL document CHEMBL5360656, “Structure-Based Design of Transport-Specific Multitargeted One-Carbon Metabolism Inhibitors in Cytosol and Mitochondria” (J Med Chem, 2023).

The term IC50 denotes the concentration that gives 50% inhibition. Higher therefore signals weaker potency in that assay.

The source made the active and inactive calls. The calls are words filed in the database; no cut-off is given here.

In one test the test system is KB. Briefly: Antitumor activity against human KB cells assessed as inhibition of cell growth measured upto 96 hrs in presence of adenosine by Cell titer blue assay. The format is functional, cell-based. (In general: The colour change of resazurin is a common sign of viable cells or microbes.)
Another test relates to CHO. Nature of the test: cells. The conditions noted are these: Cricetulus griseus, 96 h.

As to `Nc1nc2[nH]c(CCCc3ccc(C(=O)N[C@@H](CCC(=O)O)C(=O)O)s3)cc2c(=O)[nH]1`, in the test with KB, the outcome was inactive.
In the test with CHO, `Nc1nc2[nH]cc(CCc3ccc(C(=O)N[C@@H](CCC(=O)O)C(=O)O)cc3)c2c(=O)[nH]1` [PEMETREXED] yielded an IC50 of 60 nM.
